# Measurements: ChEMBL document CHEMBL2417363, “Identification of quinazolinyloxy biaryl urea as a new class of SUMO activating enzyme 1 inhibitors” (Bioorg Med Chem Lett, 2013)
# Active and inactive are the calls of the source. No cut-off for these calls is given here.
# Assays:
# [1] = target: T1, SUMO-activating enzyme (Homo sapiens) (UniProt Q9UBE0+Q9UBT2); assay: Inhibition of SUMO E1 (unknown origin)-mediated RanGAP1 sumoylation at 100 uM by immunoblotting analysis; type: protein-complex assay
# [2] = target: T1, SUMO-activating enzyme (Homo sapiens); assay: (§1) Inhibition of SUMO E1 (unknown origin)-mediated RanGAP1 sumoylation by immunoblotting analysis; type: protein-complex assay
# SUMO-activating enzyme [3] = target: T2, SUMO-activating enzyme (Homo sapiens, UniProt Q9UBT2); assay: as §1; type: protein-complex assay
# T2 sequence (Q9UBE0 whole entry): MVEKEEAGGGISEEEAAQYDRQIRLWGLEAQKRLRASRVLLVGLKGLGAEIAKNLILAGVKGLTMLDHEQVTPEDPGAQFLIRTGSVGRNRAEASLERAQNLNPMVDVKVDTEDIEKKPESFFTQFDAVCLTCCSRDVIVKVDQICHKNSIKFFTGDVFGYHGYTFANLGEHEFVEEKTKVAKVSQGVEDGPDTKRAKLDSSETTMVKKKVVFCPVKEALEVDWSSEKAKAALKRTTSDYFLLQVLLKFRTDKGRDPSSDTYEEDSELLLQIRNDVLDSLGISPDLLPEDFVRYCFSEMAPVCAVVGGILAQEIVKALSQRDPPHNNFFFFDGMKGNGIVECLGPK
# T2 sequence (Q9UBT2 whole entry): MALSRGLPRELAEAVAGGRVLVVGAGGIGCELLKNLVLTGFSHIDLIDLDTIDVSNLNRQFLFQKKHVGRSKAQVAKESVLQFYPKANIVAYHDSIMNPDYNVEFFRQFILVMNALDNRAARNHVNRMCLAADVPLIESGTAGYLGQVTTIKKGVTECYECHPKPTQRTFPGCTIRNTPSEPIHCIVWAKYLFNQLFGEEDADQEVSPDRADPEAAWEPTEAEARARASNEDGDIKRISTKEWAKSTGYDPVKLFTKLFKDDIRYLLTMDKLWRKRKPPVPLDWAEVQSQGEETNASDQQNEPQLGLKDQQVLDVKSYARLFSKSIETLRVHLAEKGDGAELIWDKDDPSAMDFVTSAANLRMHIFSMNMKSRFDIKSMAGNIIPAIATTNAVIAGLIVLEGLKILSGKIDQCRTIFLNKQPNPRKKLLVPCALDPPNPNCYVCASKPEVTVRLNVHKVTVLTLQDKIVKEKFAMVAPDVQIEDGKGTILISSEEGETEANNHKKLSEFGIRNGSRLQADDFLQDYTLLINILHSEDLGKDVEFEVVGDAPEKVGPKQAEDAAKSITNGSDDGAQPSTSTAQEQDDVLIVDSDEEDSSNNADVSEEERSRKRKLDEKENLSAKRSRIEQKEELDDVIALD
# [4] = target: T1, SUMO-activating enzyme (Homo sapiens); assay: Inhibition of SUMO E1 (unknown origin)-biotinylated SUMO-1 thioester complex formation at 10 uM after 20 mins by SDS-PAGE analysis in presence of ATP; type: protein-complex assay
# [5] = Octanol-water partition coefficient, log P of the compound; type: physicochemical
# [6] = Permeability across human Caco2 cells; type: ADME, cell-based; conditions: Caco-2, read-out: permeability
# [7] = target: T1, SUMO-activating enzyme (Homo sapiens); assay: Inhibition of SUMO E1 (unknown origin)-mediated RanGAP1 sumoylation at < 30 uM by immunoblotting analysis; type: protein-complex assay
# SUMO-activating enzyme [8] = target: T2, SUMO-activating enzyme; assay: Inhibition of SUMO E1 (unknown origin) assessed as SUMO E1-SUMO thioester bond formation; type: protein-complex assay
SMILES,inhibition [1],inhibition [2],IC50 (SUMO-activating enzyme [3]) [µM],inhibition [4],logP [5],Papp [6] [×10⁻⁶ cm/s],inhibition [7],IC50 (SUMO-activating enzyme [8]) [µM]
CCCCCC/C=C\CCCCCCCc1cccc(O)c1C(=O)O,–,–,–,Active,–,–,–,–
Cc1cccc(NC(=O)Nc2ccc(Cc3ccc(NC(=O)Nc4cccc(C)c4)cc3)cc2)c1,–,–,–,–,4.8,35.4,–,14.4
N#Cc1ccc(NC(=O)Nc2ccc(Cc3ccc(NC(=O)Nc4ccc(C#N)cc4)cc3)cc2)cc1,–,–,–,–,2.8,1.52,–,11.1
COc1ccc(NC(=O)Nc2ccc(Cc3ccc(NC(=O)Nc4ccc(OC)cc4)cc3)cc2)cc1,–,–,–,–,4.4,35.3,–,11.7
COc1ccc(NC(=O)Nc2ccc(Oc3ncnc4cc(Cl)ccc34)nc2)cc1OC1CCCC1,Active,Dose-dependent effect,13.4,Active,–,–,–,–

# Now from value to compound:
inhibition [1],inhibition [2],IC50 (SUMO-activating enzyme [3]) [µM],inhibition [4],logP [5],Papp [6] [×10⁻⁶ cm/s],inhibition [7],IC50 (SUMO-activating enzyme [8]) [µM],SMILES
Active,Dose-dependent effect,73,–,–,–,–,–,O=C(Nc1ccc(F)cc1)Nc1ccc(Oc2ncnc3cc(Cl)ccc23)nc1
Active,Dose-dependent effect,35.6,–,4.5,66.2,inactive,–,O=C(Nc1ccc(Oc2ncnc3cc(Cl)ccc23)nc1)Nc1cccc(C(F)(F)F)c1
Active,Dose-dependent effect,57.3,–,–,–,–,–,O=C(Nc1ccccc1)Nc1ccc(Oc2ncnc3cc(Cl)ccc23)nc1
Active,Dose-dependent effect,35.4,–,–,–,–,–,O=C(Nc1ccc(OCc2ccccc2)cc1)Nc1ccc(Oc2ncnc3cc(Cl)ccc23)nc1
